This passage reports IC50 results from patent US12391697B2, “Condensed bi-heterocycles as inhibiting agents for Bruton's tyrosine kinase” (BIOGEN MA INC., priority 2019, dated 2025).

Usually IC50 stands for the concentration that gives 50% inhibition. Read a low IC50 as inhibition by little substance.

Structures can show the parent of a compound that is named as a salt. Some results are limits rather than exact numbers.

In this assay the target is BTK (Homo sapiens (Human), UniProt Q06187). Kind of assay: In Vitro BTK Kinase Assay: Btk-PolyGAT-LS Assay. It is filed as biochemical. Particulars: active BTK enzyme 0.25 nM, ATP 10 μM, polyGAT 100 nM, 30 minutes. On the procedure: In Vitro BTK Kinase Assay: Btk-PolyGAT-LS Assay
BTK, sequence (Q06187 whole entry): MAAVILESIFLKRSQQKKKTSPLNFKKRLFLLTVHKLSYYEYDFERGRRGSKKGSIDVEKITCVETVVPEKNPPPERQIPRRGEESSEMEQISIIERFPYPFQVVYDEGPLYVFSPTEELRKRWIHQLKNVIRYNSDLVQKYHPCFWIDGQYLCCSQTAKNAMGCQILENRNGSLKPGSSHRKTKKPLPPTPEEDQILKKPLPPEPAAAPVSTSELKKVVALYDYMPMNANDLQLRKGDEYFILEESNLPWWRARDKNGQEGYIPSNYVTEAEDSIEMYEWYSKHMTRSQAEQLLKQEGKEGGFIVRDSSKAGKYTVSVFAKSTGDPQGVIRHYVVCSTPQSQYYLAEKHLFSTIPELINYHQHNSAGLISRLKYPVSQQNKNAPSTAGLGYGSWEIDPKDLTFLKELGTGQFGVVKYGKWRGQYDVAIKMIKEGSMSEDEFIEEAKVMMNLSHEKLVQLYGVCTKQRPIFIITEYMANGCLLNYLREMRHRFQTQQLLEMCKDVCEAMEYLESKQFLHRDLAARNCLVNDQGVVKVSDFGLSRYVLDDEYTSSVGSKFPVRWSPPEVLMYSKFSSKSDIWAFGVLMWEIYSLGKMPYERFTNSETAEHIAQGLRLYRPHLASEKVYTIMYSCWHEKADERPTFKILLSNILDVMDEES
The purpose of the BTK in vitro assay is to determine compound potency against BTK through the measurement of IC50. […] The BTK kinase reaction was done in a black 96 well plate (costar 3694). For a typical assay, a […] aliquot of a ATP/peptide master mix (final concentration; ATP 10 μM, polyGAT 100 nM) in kinase buffer (10 mM Tris-HCl pH 7.5, 10 mM MgCl2, 200 μM […], 5 mM DTT, 0.01% Triton X-100, and 0.2 mg/ml casein) is added to each well. Next, […] of a 4-fold, 40× compound titration in 100% DMSO solvent is added, followed by adding 15 uL of BTK enzyme mix in 1× kinase buffer (with a final concentration of 0.25 nM). The assay is incubated for 30 minutes before being stopped with […] of a 50 mM EDTA solution. Aliquots (5 uL) of the kinase reaction are transferred to a low volume white 384 well plate (Corning 3674), and […] of a 2× detection buffer (Invitrogen PV3574, with 4 nM Tb-PY20 antibody, Invitrogen PV3552) is added. The plate is covered and incubated for 45 minutes at room temperature. Time resolved fluorescence (TRF) on Molecular Devices M5 (332 nm excitation; 488 nm emission; 518 nm fluorescein emission) is measured.
Take `CO[C@H]1CCN(c2cc3c(-c4ccc(CNC(=O)c5nc(C(C)(C)C)no5)c(C)c4)ncnn3c2)C1` (single isomer, unassigned) [Example 23]: the IC50 was ≤ 1 nM. Then `Cc1c(CNC(=O)c2nc(C(C)(C)C)no2)ccc(-c2ncnn3cc(N4CCN(C)[C@H](C)C4)cc23)c1F` (single isomer, unassigned) [Example 25], with ≤ 1 nM; and `Cc1cc(-c2ncnn3cc(N4CCN(C)[C@H](C)C4)cc23)ccc1CNC(=O)c1nc(C(C)(C)C)no1` (single isomer, unassigned) [Example 27], with ≤ 1 nM; and `Cc1cc(-c2ncnn3cc(N4CCO[C@@H](C)C4)cc23)ccc1CNC(=O)c1noc(C(C)(C)C)n1` (single isomer, unassigned) [Example 29], with ≤ 1 nM. In the case of `Cc1cc(-c2ncnn3cc(N4C[C@@H](C)O[C@H](C)C4)cc23)ccc1CNC(=O)c1noc(C(C)(C)C)n1` (single isomer, unassigned) [Example 43] it was ≤ 1 nM; in that of `Cc1cc(-c2ncnn3cc(N4CCN(C)[C@@H](C)C4)cc23)ccc1CNC(=O)c1noc(C(C)(C)C)n1` (single isomer, unassigned) [Example 116], ≤ 1 nM. As to `Cc1cc(-c2ncnn3cc(N4CCN(C)[C@H](C)C4)cc23)ccc1CNC(=O)c1noc(C(C)(C)C)n1` (single isomer, unassigned) [Example 117], the half-maximal inhibitory concentration (IC50) was ≤ 1 nM. Then `Cc1cc(-c2ncnn3cc(C4=CCOCC4)cc23)ccc1CNC(=O)c1cnc(C(C)(C)C)o1` (single isomer, unassigned) [Example 125], with ≤ 1 nM; and `Cc1cc(-c2ncnn3cc(C4=CCOCC4)cc23)ccc1CNC(=O)c1ccn(C(C)(C)C)n1` (single isomer, unassigned) [Example 127], with ≤ 1 nM.

As to `Cc1cc(-c2ncnn3cc(N4CCO[C@H](C)C4)cc23)ccc1CNC(=O)c1nc(C(C)(C)C)no1` (single isomer, unassigned) [Example 137], the concentration for half-maximal inhibition (IC50) was ≤ 1 nM. In the case of `Cc1cc(-c2ncnn3cc(N4CCO[C@@H](C)C4)cc23)ccc1CNC(=O)c1nc(C(C)(C)C)no1` (single isomer, unassigned) [Example 138] it was ≤ 1 nM. For `Cc1cc(-c2ncnn3cc(N4CCO[C@H](C)C4)cc23)ccc1CNC(=O)c1nnn(C(C)(C)C)n1` (single isomer, unassigned) [Example 139], the half-inhibitory concentration (IC50) was ≤ 1 nM. Then `Cc1cc(-c2ncnn3cc(N4CCO[C@@H](C)C4)cc23)ccc1CNC(=O)c1nnn(C(C)(C)C)n1` (single isomer, unassigned) [Example 140], with 1 to 10 nM; and `Cc1cc(-c2ncnn3cc(N4CC[C@H](F)C4)cc23)ccc1CNC(=O)c1noc(C(C)(C)C)n1` (single isomer, unassigned) [Example 141], with ≤ 1 nM. Then `Cc1cc(-c2ncnn3cc(N4CC[C@@H](F)C4)cc23)ccc1CNC(=O)c1noc(C(C)(C)C)n1` (single isomer, unassigned) [Example 142], with ≤ 1 nM. In the case of `Cc1cc(-c2ncnn3cc(N4CCO[C@H](C)C4)cc23)ccc1CNC(=O)c1coc(C(C)(C)C)n1` (single isomer, unassigned) [Example 143] it was ≤ 1 nM; in that of `Cc1cc(-c2ncnn3cc(N4CCO[C@@H](C)C4)cc23)ccc1CNC(=O)c1coc(C(C)(C)C)n1` (single isomer, unassigned) [Example 144], ≤ 1 nM; in that of `Cc1cc(-c2ncnn3cc(-c4cnn(C)c4)cc23)ccc1CNC(=O)c1nnc(C(C)(C)C(F)F)o1` [Example 3, 5-(1,1-difluoro-2-methylpropan-2-yl)-N-(2-methyl-4-(6-(1-methyl-1H-pyrazol-4-yl)pyrrolo[2,1-f][1,2,4]triazin-4-yl)benzyl)-1,3,4-oxadiazole-2-carboxamide], ≤ 1 nM. Compound `Cc1cc(-c2ccnn3cccc23)ccc1CNC(=O)c1noc(C(C)(C)C)n1` [Example 17, 5-(tert-butyl)-N-(2-methyl-4-(pyrrolo[1,2-b]pyridazin-4-yl)benzyl)-1,2,4-oxadiazole-3-carboxamide] yielded an IC50 of 1 to 10 nM. Then `Cc1cc(-c2ccnn3cccc23)ccc1CNC(=O)c1nc(C(C)(C)C)no1` [Example 18, 3-(tert-butyl)-N-(2-methyl-4-(pyrrolo[1,2-b]pyridazin-4-yl)benzyl)-1,2,4-oxadiazole-5-carboxamide], with 1 to 10 nM; and `Cc1cc(-c2ncnn3ccc(F)c23)ccc1CNC(=O)c1noc(C(C)(C)C)n1` [Example 19, 5-(tert-butyl)-N-(4-(5-fluoropyrrolo[2,1-f][1,2,4]triazin-4-yl)-2-methylbenzyl)-1,2,4-oxadiazole-3-carboxamide trifluoroacetate], with 1 to 10 nM; and `Cc1cc(-c2ncnn3cccc23)ccc1CNC(=O)c1coc(C(C)(F)F)n1` [Example 20, 2-(1,1-difluoroethyl)-N-(2-methyl-4-(pyrrolo[2,1-f][1,2,4]triazin-4-yl)benzyl)oxazole-4-carboxamide trifluoroacetate], with > 10 nM.

For the compound `Cc1cc(-c2ccnn3ccnc23)ccc1CNC(=O)c1noc(C(C)(C)C)n1` [Example 21, 5-(tert-butyl)-N-(4-(imidazo[1,2-b]pyridazin-8-yl)-2-methylbenzyl)-1,2,4-oxadiazole-3-carboxamide trifluoroacetate], the half-inhibitory concentration (IC50) lay within 1 to 10 nM.

For `Cc1cc(-c2ccnc3cc(N4CCOCC4)nn23)ccc1CNC(=O)c1noc(C(C)(C)C)n1` [Example 22, 5-(tert-butyl)-N-(2-methyl-4-(2-morpholinopyrazolo[1,5-a]pyrimidin-7-yl)benzyl)-1,2,4-oxadiazole-3-carboxamide], the IC50 was in the range of 1 to 10 nM. Then `Cc1cc(-c2ncnn3cc(-c4cnn(C)c4)cc23)ccc1CNC(=O)c1noc(C(C)(C)CF)n1` [Example 41, 5-(1-fluoro-2-methylpropan-2-yl)-N-(2-methyl-4-(6-(1-methyl-1H-pyrazol-4-yl)pyrrolo[2,1-f][1,2,4]triazin-4-yl)benzyl)-1,2,4-oxadiazole-3-carboxamide], with ≤ 1 nM; and `Cc1c(CNC(=O)c2noc(C3(C)CC3)n2)ccc(-c2ncnn3cc(-c4cnn(C)c4)cc23)c1F` [Example 42, N-(3-fluoro-2-methyl-4-(6-(1-methyl-1H-pyrazol-4-yl)pyrrolo[2,1-f][1,2,4]triazin-4-yl)benzyl)-5-(1-methylcyclopropyl)-1,2,4-oxadiazole-3-carboxamide hydrochloride], with ≤ 1 nM; and `Cc1cc2nccc(-c3ccc(CNC(=O)c4noc(C(C)(C)C)n4)c(C)c3)n2n1` [Example 46], with > 10 nM. Consider `Cc1cc(-c2ccnn3cnnc23)ccc1CNC(=O)c1noc(C(C)(C)C)n1` [Example 47], for which the half-maximal inhibitory concentration (IC50) is > 10 nM. The compound `Cc1cc(-c2ncnn3cnc(C)c23)ccc1CNC(=O)c1noc(C(C)(C)C)n1` [Example 48] came in with an IC50 of 1 to 10 nM. Then `Cc1cc(-c2ncnn3ccc(C)c23)ccc1CNC(=O)c1noc(C(C)(C)C)n1` [Example 49], with 1 to 10 nM; and `Cc1cc(-c2ccnc3ccnn23)ccc1CNC(=O)c1noc(C(C)(C)C)n1` [Example 50], with 1 to 10 nM. With `Cc1cc(-c2ncnn3cc(Br)cc23)ccc1CNC(=O)c1noc(C(C)(C)C)n1` [Example 51], the IC50 was 1 to 10 nM. Then `Cc1cc(-c2ncnn3ccnc23)ccc1CNC(=O)c1noc(C(C)(C)C)n1` [Example 52], with 1 to 10 nM.

As to `Cc1cc(-c2c(C#N)cnn3cccc23)ccc1CNC(=O)c1noc(C(C)(C)C)n1` [Example 53], the IC50 is > 10 nM. The compound `Cc1cc(-c2ncnn3cncc23)ccc1CNC(=O)c1noc(C(C)(C)C)n1` [Example 54] gave an IC50 of 1 to 10 nM. With `Cc1cc2c(-c3ccc(CNC(=O)c4noc(C(C)(C)C)n4)c(C)c3)ncnn2c1` [Example 55], the half-inhibitory concentration (IC50) is ≤ 1 nM.

As for `C=CC(=O)n1cc(-c2cc3c(-c4ccc(CNC(=O)c5noc(C(C)(C)C)n5)c(C)c4)ncnn3c2)cn1` [Example 59, N-(4-(6-(1-acryloyl-1H-pyrazol-4-yl)pyrrolo[2,1-f][1,2,4]triazin-4-yl)-2-methylbenzyl)-5-(tert-butyl)-1,2,4-oxadiazole-3-carboxamide], the 50% inhibitory concentration (IC50) was ≤ 1 nM.

On to `Cn1cc(-c2cc3c(-c4ccc(CNC(=O)c5cnn(C(C)(C)C)c5)c(C(F)(F)F)c4)ncnn3c2)cn1` [Example 61, 1-(tert-butyl)-N-(4-(6-(1-methyl-1H-pyrazol-4-yl)pyrrolo[2,1-f][1,2,4]triazin-4-yl)-2-(trifluoromethyl)benzyl)-1H-pyrazole-4-carboxamide], for which the IC50 was ≤ 1 nM.

`CC(C)(C)c1nc(C(=O)NCc2ccc(-c3ncnn4cccc34)c(F)c2C2CC2)no1` [Example 62, 5-(tert-butyl)-N-(2-cyclopropyl-3-fluoro-4-(pyrrolo[2,1-f][1,2,4]triazin-4-yl)benzyl)-1,2,4-oxadiazole-3-carboxamide trifluoroacetate] returned a half-inhibitory concentration (IC50) of 1 to 10 nM. In the case of `Cc1c(CNC(=O)c2noc(C(C)(C)C)n2)cc(F)c(-c2ncnn3cccc23)c1F` [Example 63, 5-(tert-butyl)-N-(3,5-difluoro-2-methyl-4-(pyrrolo[2,1-f][1,2,4]triazin-4-yl)benzyl)-1,2,4-oxadiazole-3-carboxamide hydrochloride] it was 1 to 10 nM.
